Measurements taken from US20240277890A1, “ANTIMICROBIAL ARTICLES COMPRISING POLYURETHANE” (Amicoat AS, priority 2021, published 2024).
Converted amounts (≈) assume the structure as drawn.

How the values were obtained:
[1] = system: P. aeruginosa
[2] = system: Staphylococcus haemolyticus - antibiotic susceptible clinical isolate
[3] = system: Trichophyton mentagrophytes - G.R. Micro collection
[4] = system: Staphylococcus epidermidis methicillin-resistant clinical isolate
[5] = system: Streptococcus agalactiae - antibiotic-susceptible clinical isolate
[6] = system: C. albicans
[7] = system: Staphylococcus aureus - methicillin-resistant clinical isolate
[8] = system: E. coli
[9] = system: Candida (Issatchenkia) krusei ATCC6258 - reference strain
[10] = system: Staphylococcus aureus, strain ATCC 25923; conditions: ATCC 25923
[11] = system: Corynebacterium jeikeium - multi-drug resistant clinical isolate
[12] = system: Staphylococcus aureus ATCC 25923 - antibiotic-susceptible control strain
[13] = system: Pseudomonas aeruginosa - multi-drug resistant clinical isolate
[14] = system: Enterococcus gallinarum vancomycin-resistant (VanC) clinical isolate
[15] = system: Streptococcus bovis - macrolide-resistant clinical isolate
[16] = system: Candida tropicalis ATCC750 - reference strain
[17] = system: Moraxella catarrhalis - β-lactamase positive clinical isolate
[18] = system: EMRSA15 Staphylococcus aureus (MRSA) - SSCmec type 4; conditions: EMRSA15 - SSCmec type 4
[19] = system: Methicillin resistant Staphylococcus epidermidis (MRSE) strain ATCC 27626; conditions: ATCC 27626
[20] = system: Cryptococcus neoformans - G.R. Micro collection
[21] = system: Staphylococcus epidermidis antibiotic susceptible clinical isolate
[22] = system: Staphylococcus aureus ATCC 29213 - antibiotic-susceptible control strain; conditions: ATCC 29213
[23] = system: Streptococcus pyogenes CS301; assay: Murine skin infection model, one day topical treatment; type: in vivo, mice
Method: (§1) The skin of mice was infected with Staphylococcus aureus or Streptococcus pyogenes and subsequently given a total of three treatments at three hourly intervals. Three hours after the last treatment, skin biopsies were collected and the number of colony forming units (CFUs) present in the skin sample was determined. Results are shown in FIGS. 3, 4 and 5 expressed as the number of colony forming units per mouse.

[24] = system: Staphylococcus aureus FDA486; assay: as above; type: in vivo, mice; conditions: cream or gel containing 2% (w/w) of compound; three topical treatments at three hourly intervals; compared to placebo
Method: as §1

[25] = system: EMRSA3 Staphylococcus aureus (MRSA) - SSCmec type 1; conditions: EMRSA3 - SSCmec type 1
[26] = system: HT2001254 Staphylococcus aureus (MRSA) - PVL positive; conditions: HT2001254 S. aureus (MRSA) PVL positive
[27] = system: Staphylococcus saprophyticus - antibiotic susceptible clinical isolate
[28] = system: Moraxella catarrhalis - reduced fluoroquinolone susceptibility clinical isolate
[29] = system: Staphylococcus aureus ATCC 43300 - methicillin-resistant control strain
[30] = system: S. pyogenes
[31] = system: Corynebacterium jeikeium - antibiotic-susceptible clinical isolate
[32] = system: Methicillin resistant Staphylococcus aureus (MRSA) strain ATCC 33591; conditions: ATCC 33591

Q: What does the source list for `CC(C)NC(=O)[C@H](CCCNC(=N)N)NC(=O)[C@H](Cc1c(C(C)(C)C)[nH]c2c(C(C)(C)C)cc(C(C)(C)C)cc12)NC(=O)[C@@H](N)CCCNC(=N)N` [Compound 7]?
A: P. aeruginosa (MIC) [1]: 7 µg/mL; MIC [2]: 4 µg/mL (≈ 5.51 µM); MIC [3]: 8 µg/mL (≈ 11 µM); MIC [4]: 4 µg/mL (≈ 5.51 µM); MIC [5]: 8 µg/mL (≈ 11 µM); C. albicans (MIC) [6]: 25 µg/mL; MIC [7]: 8 µg/mL (≈ 11 µM); E. coli (MIC) [8]: 7 µg/mL; MIC [9]: 8 µg/mL (≈ 11 µM); S. aureus (MIC) [10]: <2 µg/mL; MIC [11]: 8 µg/mL (≈ 11 µM); MIC [12]: 8 µg/mL (≈ 11 µM); MIC [13]: 8 µg/mL (≈ 11 µM); MIC [14]: 8 µg/mL (≈ 11 µM); MIC [15]: 8 µg/mL (≈ 11 µM); MIC [16]: 4 µg/mL (≈ 5.51 µM); MIC [17]: 4 µg/mL (≈ 5.51 µM); MIC [18]: 8 µg/mL (≈ 11 µM); MRSE (MIC) [19]: <2 µg/mL; MIC [20]: 8 µg/mL (≈ 11 µM); MIC [21]: 4 µg/mL (≈ 5.51 µM); MIC [22]: 8 µg/mL (≈ 11 µM); number of CFUs in skin biopsy ([23]; 1% or 2% gel, three topical treatments at three hourly intervals, compared to placebo gel and bactroban): more effective at reducing the number of CFUs from a Streptococcus pyogenes CS 301 infection than the placebo gel or the bactroban; number of CFUs in skin biopsy, 2% gel versus 1% gel ([23]; gel containing 2% compared to gel containing 1%): more effective than the gel containing only 1% of compound 7; number of CFUs in skin biopsy [24]: the number of CFUs was reduced; MIC [25]: 8 µg/mL (≈ 11 µM); MIC [26]: 8 µg/mL (≈ 11 µM); MIC [27]: 2 µg/mL (≈ 2.75 µM); MIC [28]: 8 µg/mL (≈ 11 µM); MIC [29]: 8 µg/mL (≈ 11 µM); S. pyogenes (MIC) [30]: <2 µg/mL; MIC [31]: 8 µg/mL (≈ 11 µM); MRSA (MIC) [32]: <2 µg/mL
